Assay results reported in patent US6492329B1, “Cytokine and hemopoietic factor endogenous production enhancer and methods of use thereof” (Novelos Therapeutics, Inc., priority 1995, dated 2002).

Tests used:
normal human lymphocytes = experiment: Proliferation/apoptosis of normal human lymphocytes (cell number per well, flow cytofluorometry); format: cell-based
[1] = system: rat embrional fibroblasts (REF); experiment: Number of REF cells throughout 72-hr incubation; format: cell-based
Method: (§1) To this end, these substances had been incubated for 72 hours with cells of rat embrional fibroblasts (REF) and the same cells, transformed with adenoviral E1A gene in complementation with ras-oncogene (e-ras cell line). Subsequent evaluation of the cellularity of experimental samples was carried out by counting the quantity of cell per milliliter (for REF cell line) or clones in dish (for e-ras cell line).
(§2) Cells were cultivated on DMEM medium supplemented with 10% fetal calf serum and […] gentamicin. Cultivation was carried out in Petri dishes.
(§3) REF cells was cultivated with initial density of 800 000 cell per mL, evaluation of the cellularity was performed at 0, 24, 48 and 72 hours of incubation with the test articles.
(§4) For the test-system for estimation of apoptosis regulation UV-induced cell death was triggered in a dose of 4 Dj. Test articles were added immediately after irradiation. Then, the quantity of cell per milliliter (for REF cell line) or clones in dish (for e-ras cell line) were monitored every 24 hours. For determination of DNA-fragmentation the electrophoresis in agarose gel was used at standard settings.

[2] = system: e-ras cell line (REF transformed with E1A and ras-oncogene); experiment: Number of clones of e-ras cells throughout 72-hr incubation; format: cell-based, rat
Method: as §1, §2
(§5) E-ras cells were seeded at a cell density of 300 cells per 5 cm dish. 7 days after growth of e-ras cells had been started the quantity of clones was evaluated and the test articles were added into the dishes.
as §4

[3] = system: rat embrional fibroblasts (REF) after UV-irradiation; experiment: Number of REF cells after UV-irradiation; format: cell-based
Method: as §1, §2, §3, §4

[4] = system: e-ras cells after UV-irradiation; experiment: Number of clones of e-ras cells after UV-irradiation; format: cell-based, rat
Method: as §1, §2, §5, §4

leukemia P388 cells [5] = experiment: Leukemia P388 in mice: ascitic fluid and survival (Example 14); details: for Accumulation of ascitic (weight gain, %): leukemia P388
Method: (§6) An influence of 7 day course of test article daily administration was studied in respect of tumor progression, which was estimated using the two integral indices: pace of mouse weight gain due to accumulation of ascitic fluid, and by animal mean survival time after inoculation.
(§7) The study was carried out on DBA/2 mice weighing 18-21 g. First, tumor cell passage was performed using 6 animals for each cell line. For this, cells kept at the temperature of the liquid nitrogen were de-frozen and adjusted to the concentration of 5×10^6 cells/mL by sterile Hanks' solution. Then, 6 mice were intra peritoneally inoculated with 0.2 mL of each line cellular suspension.
(§8) Ascitic fluid was collected 6 days after the inoculation with L1210 cells, 8 days after the inoculation with P388 ones and 18 days after inoculation with Erlich adenocarcinoma cells. Thus obtained, the samples of passaged tumor cells were used for the main experiments. The fluid liquid was dissolved by sterile Hanks' solution so that cell concentration be 5×10^6 cells/mL for P388 cells and Erlich adenocarcinoma cells, 5×10^5 cells/mL for L1210 cells.
(§9) Eleven groups of animals with no less than 15 mice each were formed for experiments with either tumor cell line. Mice were inoculated with 0.2 mL of resultant cell suspensions per mouse (10^6 P388 and Erlich adenocarcinoma cells/mouse, and 10^5 L1210 cells/mouse). 24 hours after the tumor cells inoculation, animals were given the first injections of the test articles or vehicles. The test article injections were made daily till the 14th day of the experiment or till the animal death. The volume of solutions injected comprised 0.01 mL/g body weight.
(§10) #1—intact animals receiving imitation of tumor cell inoculation (injection of normal saline) which further were treated with normal saline throughout the entire experiment;
(§11) #2—control animals, inoculated with tumor cells, which further were treated with test article vehicle (normal saline);

leukemia L1210 cells [6] = experiment: Leukemia L1210 in mice: ascitic fluid and survival (Example 14); details: for Accumulation of ascitic (weight gain, %): leukemia L1210
Method: as §6, §7, §8, §9, §10, §11

[7] = system: Erlich adenocarcinoma cells; experiment: Erlich adenocarcinoma in mice: ascitic fluid and survival (Example 14); details: for Accumulation of ascitic (weight gain, %): Erlich adenocarcinoma
Method: as §6, §7, §8, §9, §10, §11

leukemia P388 cells [8] = experiment: Leukemia P388 in mice: serum cytokines, ascitic fluid, survival (Example 5); details: for Accumulation of ascitic fluid (weight gain) / Concentration in serum: IFNα / Concentration in serum: IL-1 / Concentration in serum: IL-2 / Concentration in serum: IL-6 / Concentration in serum: TNFα: P388 mice
Method: (§12) An influence of 7 day course of test article daily administration was studied in respect of variations of serum cytokine levels (IL-1, IL-2, IL-6, IFNα, TNF). In parallel, the tumor progression was estimated using the two integral indices: pace of mouse weight gain due to accumulation of ascitic fluid, and by animal mean survival time after inoculation.
(§13) The study was carried out on DBA/2 mice weighing 18-21 g. First, tumor cell passage was performed using 6 animals for each cell line. For this, cells kept at the temperature of the liquid nitrogen were de-frozen and adjusted to the concentration of 5×10^6 cells/mL by sterile Hanks' solution. Then, 6 mice were intraperitoneally inoculated with 0.2 mL of each line cellular suspension.
(§14) Ascitic fluid was collected 6 days after the inoculation with L1210 cells and 8 days after the inoculation with P388 ones. Thus obtained, the samples of passaged tumor cells were used for the main experiments. The fluid liquid was dissolved by sterile Hanks' solution so that cell concentration be 5×10^6 cells/mL for P388 cells and 5×10^5 cells/mL for L1210 cells.
(§15) Nine groups of animals with no less than 15 mice each were formed for experiments with either tumor cell line. Mice were inoculated with 0.2 mL of resultant cell suspensions per mouse (10^6 P388 cells/mouse, and 10^5 L1210 cells/mouse). 24 hours after the tumor cells inoculation. animals were given the first injections of the test articles or vehicles. The test article injections were made daily till the 14th day of the experiment or until the animal's death. The volume of solutions injected comprised 0.01 mL/g body weight.
as §10, §11

leukemia L1210 cells [9] = experiment: Leukemia L1210 in mice: serum cytokines, ascitic fluid, survival (Example 5); details: for Accumulation of ascitic fluid (weight gain) / Concentration in serum: IFNα / Concentration in serum: IL-1 / Concentration in serum: IL-2 / Concentration in serum: IL-6 / Concentration in serum: TNFα: L1210 mice
Method: as §12, §13, §14, §15, §10, §11

HL-60 cells = experiment: Proliferation/apoptosis of HL-60 tumor cells (cell number per well, flow cytofluorometry)
Method: Subsequent evaluation of the cell cycle parameters was carried out by the flow cytofluorometry technique.
A mononuclear fraction of blood leukocytes were obtained by centrifugation in gradient of fikoll-metrizoat (Histopaque, Sigma). […] Cell viability was estimated by the Trypan blue exclusion method, then the cell suspension was placed into wells of 96-well microtiter plates—200,000 cells per well. […] Cultivation was carried out in closed flasks, the medium volume was 12 mL, it was changed every four days by centrifugation. The nature of the cells growth was suspensive. […] 50 μL of each test solution were added to one or the other cell culture and thereafter cells were cultivated for 24-96 hours. Then, they were tested by the flow cytofluorometry to estimate DNA content in the cell nuclei. In case of apoptosis-like cellular death, the portion of cell nuclei with normal content of DNA became reduced, while the portion of cell nuclei containing abnormally small DNA quantity became larger.
The analysis procedure was the following: after incubation completion, cells were centrifuged and transferred to a standard phosphate isotonic buffer pH 7.4, containing RNA-ase A (20 μg/mL), ethidium bromide (fluorometric indicator for double stranded nucleic acid. 10 μg/mL) and MgCl2 (5 mM). After the cells were disintegrated by nonionic detergent Triton X-100 (final concentration 0.1%). The suspension of cell nuclei thus obtained was analyzed by flow cytofluorometry with an argon laser as a source of light (wave length 488 nm). The red fluorescence due to DNA bound ethidium bromide was taken to be the measure of DNA content in the cell nuclei.

## NCCSSCCN [0.1% cystamine, 2,2′-Dithio-bis[ethylamine]]
Normal human lymphocytes; 24 hours incubation
  number of normal lymphocytes per well: 30 ± 2 × 10^4 cells
Normal human lymphocytes; 48 hours incubation
  number of normal lymphocytes per well: 72 ± 4 × 10^4 cells
Normal human lymphocytes; 72 hours incubation
  number of normal lymphocytes per well: 122 ± 9 × 10^4 cells
Normal human lymphocytes; 96 hours incubation
  number of normal lymphocytes per well: 196 ± 11 × 10^4 cells
[1]; 0 hours of incubation
  number of REF cells (M ± m): 822 ± 14 × 10^3 cells
[1]; 24 hours of incubation
  number of REF cells (M ± m): 1523 ± 11 × 10^3 cells
[1]; 48 hours of incubation
  number of REF cells (M ± m): 2486 ± 34 × 10^3 cells
[1]; 72 hours of incubation
  number of REF cells (M ± m): 5048 ± 126 × 10^3 cells
[2]; 0 hours of incubation
  number of clones of e-ras cells (M ± m): 276 ± 4
[2]; 24 hours of incubation
  number of clones of e-ras cells (M ± m): 281 ± 4
[2]; 48 hours of incubation
  number of clones of e-ras cells (M ± m): 271 ± 6
[2]; 72 hours of incubation
  number of clones of e-ras cells (M ± m): 258 ± 3
[3]; 0 hours
  number of REF cells after UV-irradiation (M ± m): 822 ± 14 × 10^3 cells
[3]; 24 hours
  number of REF cells after UV-irradiation (M ± m): 523 ± 11 × 10^3 cells
[3]; 48 hours
  number of REF cells after UV-irradiation (M ± m): 246 ± 34 × 10^3 cells
[3]; 72 hours
  number of REF cells after UV-irradiation (M ± m): 208 ± 26 × 10^3 cells
[4]; 0 hours
  number of clones of e-ras cells after UV-irradiation (M ± m): 276 ± 4
[4]; 24 hours
  number of clones of e-ras cells after UV-irradiation (M ± m): 181 ± 4
[4]; 48 hours
  number of clones of e-ras cells after UV-irradiation (M ± m): 111 ± 6
[4]; 72 hours
  number of clones of e-ras cells after UV-irradiation (M ± m): 108 ± 3
Leukemia P388 cells [5]; number of injection 0
  Accumulation of ascitic (weight gain, %): 0.4 ± 0.3%
Leukemia P388 cells [5]; number of injection 3
  Accumulation of ascitic (weight gain, %): 5.2 ± 0.6%
Leukemia P388 cells [5]; number of injection 7
  Accumulation of ascitic (weight gain, %): 18.8 ± 1.1%
Leukemia P388 cells [5]; mice inoculated with leukemia P388 cells
  Mean survival time: 20.2 ± 0.3
Leukemia L1210 cells [6]; number of injection 0
  Accumulation of ascitic (weight gain, %): 0.42 ± 0.3%
Leukemia L1210 cells [6]; number of injection 3
  Accumulation of ascitic (weight gain, %): 8.2 ± 0.6%
Leukemia L1210 cells [6]; number of injection 7
  Accumulation of ascitic (weight gain, %): 24.8 ± 2.1%
Leukemia L1210 cells [6]; mice inoculated with leukemia L1210 cells
  Mean survival time: 10.2 ± 0.8
[7]; number of injection 0
  Accumulation of ascitic (weight gain, %): 0.6 ± 0.2%
[7]; number of injection 3
  Accumulation of ascitic (weight gain, %): 9.2 ± 0.8%
[7]; number of injection 7
  Accumulation of ascitic (weight gain, %): 25.8 ± 1.7%
[7]; mice inoculated with Erlich adenocarcinoma cells
  Mean survival time: 10.2 ± 0.8
Leukemia P388 cells [8]; 0 injections
  Accumulation of ascitic fluid (weight gain): 0.67 ± 0.22%
  Concentration in serum: IFNα: 107 ± 8.06 pg/mL
  Concentration in serum: IL-1: 30.0 ± 4.02 pg/mL
  Concentration in serum: IL-2: 14.9 ± 2.05 pg/mL
  Concentration in serum: IL-6: 72.7 ± 9.10 pg/mL
  Concentration in serum: TNFα: 80.5 ± 7.14 pg/mL
Leukemia P388 cells [8]; 3 daily injections
  Accumulation of ascitic fluid (weight gain): 6.0 ± 0.49%
  Concentration in serum: IFNα: 216. ± 19.08 pg/mL
  Concentration in serum: IL-1: 41.5 ± 5.81 pg/mL
  Concentration in serum: IL-2: 15.25 ± 1.80 pg/mL
  Concentration in serum: IL-6: 184.0 ± 15.6 pg/mL
  Concentration in serum: TNFα: 204. ± 16.1 pg/mL
Leukemia P388 cells [8]; 7 daily injections
  Accumulation of ascitic fluid (weight gain): 19.9 ± 1.67%
  Concentration in serum: IFNα: 315. ± 9.80 pg/mL
  Concentration in serum: IL-1: 22.3 ± 3.0 pg/mL
  Concentration in serum: IL-2: 20.18 ± 2.50 pg/mL
  Concentration in serum: IL-6: 170.6 ± 14.3 pg/mL
  Concentration in serum: TNFα: 220. ± 19.1 pg/mL
Leukemia P388 cells [8]; mice inoculated with leukemia P388 cells, daily injections till day 14 or death
  Mean survival time: 9.93 ± 0.27
Leukemia L1210 cells [9]; 0 injections
  Accumulation of ascitic fluid (weight gain): 0.47%
  Concentration in serum: IFNα: 115.0 pg/mL
  Concentration in serum: IL-1: 36.0 pg/mL
  Concentration in serum: IL-2: 16.9 pg/mL
  Concentration in serum: IL-6: 63.0 pg/mL
  Concentration in serum: TNFα: 88.6 pg/mL
Leukemia L1210 cells [9]; 3 daily injections
  Accumulation of ascitic fluid (weight gain): 5.93%
  Concentration in serum: IFNα: 200. pg/mL
  Concentration in serum: IL-1: 47.50 pg/mL
  Concentration in serum: IL-2: 17.30 pg/mL
  Concentration in serum: IL-6: 70.0 pg/mL
  Concentration in serum: TNFα: 185.0 pg/mL
Leukemia L1210 cells [9]; 7 daily injections
  Accumulation of ascitic fluid (weight gain): 21.17%
  Concentration in serum: IFNα: 137.0 pg/mL
  Concentration in serum: IL-1: 28.0 pg/mL
  Concentration in serum: IL-2: 22.8 pg/mL
  Concentration in serum: IL-6: 155.0 pg/mL
  Concentration in serum: TNFα: 213.0 pg/mL
Leukemia L1210 cells [9]; mice inoculated with leukemia L1210 cells, daily injections till day 14 or death
  Mean survival time: 9.53 ± 0.18
HL-60 cells; 24 hours incubation
  number of HL-60 cells per well: 112 ± 10 × 10^4 cells
HL-60 cells; 48 hours incubation
  number of HL-60 cells per well: 182 ± 9 × 10^4 cells
HL-60 cells; 72 hours incubation
  number of HL-60 cells per well: 465 ± 11 × 10^4 cells
HL-60 cells; 96 hours incubation
  number of HL-60 cells per well: 618 ± 19 × 10^4 cells
